Measured values: patent publication US20120136005A1, “E[…] THE TREATMENT OF ANXIETY” (MERZ PHARMA GmbH & CO. KGaA, priority 2009, published 2012)
“Also recorded” adds a separate entry of the source.

Columns and labels:
[1] = target: 5-HT1b receptor (Rattus norvegicus, UniProt P28564); conditions: Schipper et al. 1990; cited from earlier work
[2] = tested on: Sprague-Dawley rats; assay: Open field locomotor activity; assay type: in vivo
Method: (§1) For contextual fear conditioning, open field, fear potentiated startle and elevate plus maze, experimentally naive adult male Sprague-Dawley rats (250-300 g; Janvier, France) were housed in groups of four per cage. Colony room temperature and humidity were maintained respectively at 20±1° C. and 60±3%. Food and water were available ad libitum and the animals were kept under an alternating 12 h/12 h day-night cycle (lights on at 07.00) for at least 6 days before the experiments were started. All experiments were conducted during the light period of the day-night cycle. For the Vogel test, male experimentally naive Wistar rats (180-220 g, State Breeding Farm “Rappolovo”, St. Petersburg, Russia; N=109) were used. Each animal was used only once.
Eltoprazine hydrochloride was dissolved in sterile water. […]
Locomotor activity was measured in four perspex boxes (ENV-515-16, 43.2 cm×43.2 cm×30 cm) placed in a noise-proof chamber equipped with ventilator and a source of white light (5.6 W) placed 55 cm above floor. […] 4 arrays of 16 infrared photo beams placed 3 cm above the floor measured horizontal activity. […] The output from the counters was integrated and analysed on-line by an PC computer. […]
Total distance travelled during the 60 min was taken for statistical analysis. Data are analysed by one-way ANOVA followed by Dunnett's test.

[3] = tested on: Wistar rats; assay: Shock-suppressed drinking (Vogel) test; assay type: in vivo; conditions: acute s.c., 30 min before the test; not statistically significant; FIG. 7
Method: as §1
Eltoprazine hydrochloride was dissolved in sterile water. Administration of eltoprazine or vehicle (sterile water) was done s.c. (0.078 to 1.25 mg/kg) once, 60 minutes (30 min in the Vogel test) prior to start of the behavioural assay.
The apparatus consisted of 4 identical standard operant chambers with grid metal floor. Water bottle spout was protruded through the wall and connected to a shock device. […] Latency to start drinking was registered, and total drinking time and the licks number were recorded during 5 min timed from the first lick of the bottle spout. […]

Sequence of 5-HT1b receptor (P28564 whole entry): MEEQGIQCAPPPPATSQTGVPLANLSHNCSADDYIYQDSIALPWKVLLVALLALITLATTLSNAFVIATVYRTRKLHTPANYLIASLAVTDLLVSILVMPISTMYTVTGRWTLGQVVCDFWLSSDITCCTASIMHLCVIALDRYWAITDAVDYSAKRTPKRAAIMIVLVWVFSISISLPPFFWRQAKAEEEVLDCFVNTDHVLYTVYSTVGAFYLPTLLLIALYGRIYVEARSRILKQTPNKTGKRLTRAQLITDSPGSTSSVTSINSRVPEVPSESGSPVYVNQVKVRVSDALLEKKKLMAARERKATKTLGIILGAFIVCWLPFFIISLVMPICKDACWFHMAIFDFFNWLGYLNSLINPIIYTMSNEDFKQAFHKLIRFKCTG

Structure (SMILES): c1cc2c(c(N3CCNCC3)c1)OCCO2 [eltoprazine, 1-(2,3-dihydro-1,4-benzodioxin-5-yl)piperazine]
- effect on 5-HT1b receptor [1]: agonistic effect
- total distance travelled in the open field ([2]; 1.25 mg/kg s.c.): significantly increased
- locomotor activity in the open field at anxiolytic doses ([2]; acute s.c., 60 min before the test, FIG. 5): not related to non-specific increase in locomotor activation
- number of accepted punishments (shocks received) in the Vogel test [3]: tendency to increase; also recorded: trend for anxiolytic activity
